Reference: patent US12564580B2, “Mitochondria-targeted isoketal/isolevuglandin scavengers and uses thereof” (Vanderbilt University, priority 2020, dated 2026)

Legend:
[1] = tested on: kidney (renal cortex and medulla); test: Kidney histological analyses in LPS model
Procedure: Three months old C57BL/6J mice (25-28 g) were supplemented with mito2HOBA (drinking water, 0.1 g/L) for 72 hours prior to LPS injection (25 μg/g). […] (C) Histopathological scores of renal injuries as described in methods section. […] Data are mean±STD *P<0.01 vs LPS (n=6), *P<0.01 vs LPS (n=10).
FIGS. 6A-H show histological analysis of cellular injury in kidneys of control, mito2HOBA supplemented, LPS-injected and LPS+mito2HOBA-treated mice. Representative sections from control mice show normal glomeruli (g), proximal tubules (P), and distal tubules (*) in the cortex (A) and medulla (B).
Kidneys were harvested from mice and placed immediately in 10% formalin. Following fixation, kidneys were washed with saline, placed in 70% ethanol, and processed in the following sequence: 70% ethanol; 80% ethanol; 95% ethanol; 100% ethanol; 100% xylene. Then kidneys were embedded in POLY/Fin paraffin (ThermoFisher). Five-μm sections were cut using a Leitz 1512 microtome and were mounted on glass slides. Sections were stained with hematoxylin and eosin and were viewed using an Olympus IX70 microscope. Images were captured with a Jenoptix Progress C12 digital camera. Histopathological scores of kidneys were measured as follows: (0) No tubular injury; (1) <10% tubules injured; (2) 10-25% tubules injured; (3) 25-50% tubules injured; (4) 50-75% tubules injured; (5) >75% tubules injured.

[2] = tested on: aortic mitochondrial proteins (SOD2, CypD, NDUFS1); test: Western blot analysis of mitochondrial acetylation and isoLG adducts in aortas of angiotensin II-infused mice; type: in vivo, mouse
Excerpt: FIGS. 11A-D show Western blot analysis of mitochondrial acetylation in aortas isolated from Sham and angiotensin II-infused mice treated with mito2HOBA. (A) Typical Western blots isoLG-protein adducts (D11 ab), Sirt3, Acetyl-Lysine, SOD2-K68-Acetylation, CypD Acetylation, isoLG adduct with complex I NDUFS1 75 KDa subunit and mitochondrial complex I; (B) Sirt3 levels; (C) mitochondrial protein lysine acetylation; (D) SOD2-K68-Acetyl levels; and (E) CypD-Acetyl levels. Mice supplied with mito2HOBA (m2H) in drinking water (0.1 g/L) and angiotensin II (osmotic pump, 0.7 mg/kg/day) for 14 days. Data were normalized by Complex I levels (Sham is 100%). Results are mean±SEM (n=5). *P<0.01 vs Sham, **P<0.01 vs angiotensin II (Ang II).
Dihydroethidium (DHE) and MitoSOX superoxide probes were supplied by Invitrogen (Grand Island, NY). Sirt3 (54905) antibodies were from Cell Signaling. Acetyl-K68-SOD2 (ab137037), complex I NDUFS1 75 kDa subunit (ab22094) and CypD (ab110324) and GAPDH (ab8245) antibodies were from Abcam. SOD2 (sc30080) antibodies were obtained from Santa Cruz Biotechnology. Acetyl-lysine antibodies (ab3839) were provided by Millipore-Sigma. D11, an isoLG-lysyl adducts-specific scFv antibody, has been previously characterized. All antibodies were used at 1000-fold dilution. […] All other reagents were obtained from Sigma (St Louis, MO).

complex I/complex II = settings: kidney mitochondria after LPS treatment, mito2HOBA supplementation
Procedure: Three months old C57BL/6J mice (25-28 g) were supplemented with mito2HOBA (drinking water, 0.1 g/L) for 72 hours prior to LPS injection (25 μg/g). Complex I/Complex II activity ratio is expressed as a % compared to Control (100%). […] Data are mean±STD *P<0.01 vs LPS (n=6), *P<0.01 vs LPS (n=10).
Forty C57BL/6J 3-month old mice were equally divided in four groups: Sham (Control), LPS-injected mice (LPS), mice supplemented with mito2HOBA (0.1 g/Liter) in the drinking water (mito2HOBA), and LPS-injected mice pretreated with mito2HOBA in the drinking water (LPS+mito2HOBA). […]
Mitochondrial complex I and complex II activities were evaluated after 24 hours of LPS injection as described above. […]
Respiration rates were measured using Fluorescence Lifetime Micro Oxygen Monitoring System (Instech Laboratories, Inc.). […] OXPHOS specific enzyme activities in submitochondrial particles (SMP) were measured using a Varian Cary 300 Bio UV/Vis spectrophotometer with temperature controlling cell holder. […] Complex I activity was monitored in triplicate samples as the reduction of 10 μM decylubiquinone at 272 nm by 15 μg of mitochondrial protein with 40 μM NADH. […] Complex II activity was measured by monitoring the absorbance at 600 nm during the oxidation of 50 μM DCPIP as artificial electron acceptor by 65 μM ubiquinone in presence of 2 mM KCN and 2 μg/ml rotenone and antimycin A.

renal ATP = test: ATP levels in kidney tissue of angiotensin II-infused mice; type: in vivo, mouse; settings: Ang II plus mito2HOBA
Procedure: FIGS. 13A-B show mito2HOBA reduces mPTP opening and prevents mitochondrial dysfunc¬tion. C57B1/6J mice were infused with Ang II ([…]) and mito2HOBA in the drinking water (0.1 g/L). Following 14 days of Ang II infusion the animals were sacrificed and kidneys were isolated for mitochondrial studies. Addition of CaCl2 to mitochondria above Ca2+ retention capacity led to mPTP opening and mitochondria swelling. 71 Mitochondria isolated from Ang II-infused mice had significant reduction in Ca2+ capacity due to increased mPTP opening and CypD inhibitor Cyclosporine A (CsA) rescued Ca2+ retention capacity (A). Respiratory control ratio (State 3/State 4) was measured in isolated kidney mitochondria with glutamate and malate (B). Control level is 100%. (C) Renal ATP was measured in freshly isolated tissue by luciferase-based luminescent assay. 72 Results are mean±SEM. *P<0.01 vs Sham, **P<0.01 vs Angiotensin II (n=5).
ATP concentration in the kidney tissue was measured by luminescent ATP detection assay kit (Abcam; Cat #ab113849). Luminescence signals were read using a Biotek Synergy H1 plate reader. Luminescence units were calculated as μmol/mg protein based on the ATP calibration curve and protein concentration measured by the Bradford method.

mouse aortic rings = test: Vasodilatation study of aortic rings (endothelial-dependent relaxation); type: in vivo; settings: Ang II plus mito2HOBA
Procedure: FIGS. 12A-D show the effect of mito2HOBA supplementation on mitochondrial superoxide (A), vascular superoxide (B), endothelial nitric oxide (C) and endothelial-dependent relaxation (D) in angiotensin II-infused mice. Mitochondrial and vascular O2⋅ was measured by mitochondria-targeted superoxide probe mitoSOX (1 μM) or untargeted superoxide probe DHE (50 μM) using HPLC.46 Endothelial nitric oxide was analyzed by NO spin trap Fe(DETC)2 and ESR.47 C57B1/6J mice were infused with Ang II and mito2HOBA was provided in the drinking water (0.1 g/L). […] Results are mean±SEM. *P<0.01 vs Sham, **P<0.01 vs Ang II (n=6).
Isometric tension studies were performed on 2 mm mouse aortic rings dissected free of perivascular fat from C57B/6J mice. Studies were performed in a horizontal wire myograph (DMT, Aarhus, Denmark, models 610 M and 620 M) containing physiological salt solution with the composition of 130 mM NaCl, 4.7 mM KCl 1.2 mM MgSO4, 1.2 mM KH2PO4, 15 mM NaHCO3, 5.5 mM glucose, and 1.6 mM CaCl2. The isometric tone of each vessel was recorded using LabChart Pro v7.3.7 (AD Instruments, Australia). […] Once the vessels reach a steady state contraction, increasing concentrations of acetylcholine were administered, and the response to each concentration of drug was recorded.

[3] = tested on: mitochondrial isoLG-Lysyl-Lactam protein adducts; test: isoLG-Lysyl-Lactam adducts in kidney mitochondria by LC/MS/MS; type: in vivo, mouse; settings: Ang II-infused mice, mito2HOBA 0.1 g/L
Excerpt: FIGS. 10A-D show the effect of mito2HOBA on angiotensin II-induced hypertension and accumulation of mitochondrial isoLGs protein adducts. (A) Blood pressure tail-cuff measurements in male Sham or angiotensin II-infused mice supplied with mito2HOBA in drinking water (0.1 g/L) or equimolar amount of untargeted analog 2HOBA (0.17 mmol/L). (B) Telemetry studies of blood pressure in angiotensin II-infused mice supplied with mito2HOBA or plain water as a vehicle. (C) Representative LC/MS/MS chromatograms of isoLG-Lysyl-Lactam adduct; (D) isoLG-Lys-Lactam levels in kidney mitochondria isolated from Sham or angiotensin II-infused mice supplied with mito2HOBA. Results are mean±SEM. *P<0.01 vs Sham, **P<0.01 vs Ang II (n=8).
C57B1/6J mice were sacrificed by carbon dioxide and kidneys removed, cleaned from fat tissue and placed in the ice-slurry cold isolation medium. […] Mitochondrial protein concentration was measured by Bradford method.
IsoLG-Lysyl-Lactam adducts were measured in mitochondria isolated from the kidneys of sham or angiotensin II-infused mice using Mass Spectrometry. […] A [^13C6] internal standard was added and the isoLG-lysyl adducts were purified by solid phase extraction and HPLC before being quantified by Liquid Chromatography-tandem Mass Spectrometry assay (LC/ESI/MS/MS) using isotopic dilution as described previously.

[4] = LPS plus mito2HOBA vs LPS alone

In the case of `NCc1ccc(OCCCC[P+](c2ccccc2)(c2ccccc2)c2ccccc2)cc1O` [mito2HOBA], the renal cortex injury ([1]; LPS plus mito2HOBA) is reported as “the cortex appeared normal”, the “histopathological scores of renal injuries” value [1, 4] is reported as “significant reduction in cellular injury” and the renal medulla injury [1, 4] is reported as “the extent and degree of injury was less”. The “kidney histology, mito2HOBA alone” value ([1]; mice supplemented with mito2HOBA without LPS) was “appeared normal”, the “SOD2 acetylation in aortas” value ([2]; % compared to control mice, Ang II plus mito2HOBA) was 147% and the “CypD acetylation in aortas” value ([2]; % compared to control, Ang II plus mito2HOBA) was 156%. For the same molecule, the “hyperacetylation of mitochondrial proteins in aortas” value ([2]; Ang II 14 days, mito2HOBA 0.1 g/L (Ang II alone 420%)) was “normalized”, the “isoLG-complex I NDUFS1 subunit adduct levels” value ([2]; Ang II plus mito2HOBA) was “reduced” and the “mitochondrial isoLG adducts in aortic mitochondria” value ([2]; Ang II plus mito2HOBA) was “inhibited formation”. The “complex I/complex II activity ratio” value (complex I/complex II) was “completely preserved”, the “decrease in renal ATP levels” value (renal ATP) was “prevented” and the endothelial-dependent relaxation (mouse aortic rings) was “preserved”. For the same molecule, the “isoLG-Lysyl-Lactam adducts formation in kidney mitochondria” value [3] was “abolished”.
